We go through eleven molecules from paper PMC9420858, “Synthesis, bioactivity, and molecular docking of novel arylpiperazine derivatives as potential AR antagonists” (Frontiers in Chemistry, 2022).

In data set [1] the test system is RWPE-1 cells. The data set is described as follows: Cytotoxicity, CCK-8 assay, RWPE-1 normal prostate epithelial cells. It counts as cell-based. The conditions noted are these: RWPE-1 normal non-cancer human prostate epithelial cell line, 24 h, mean ± SD of three experiments. The protocol:
(§1) The antiproliferative activity of compounds 5–26 was assessed using the CCK-8 assay ([Chen et al., 2016]; [Chen et al., 2017]; [Chen et al., 2018]; [Han et al., 2020]; [Guo et al., 2021]; [Hu et al., 2022]; [Zhou et al., 2022]). The 96-well plates (1×10^5 cells/mL) were seeded with cells in a medium, the plates were cultured at 37 °C for 24 h, then different concentrations of tested drugs were added, and the plates were cultured for 24 h. After 24 h, 10 μL of CCK-8 solution (5 mg/ml) was added to the wells, and the cells were cultured for 1 h at 37°C. Cell growth inhibition was performed by measuring the absorbance at 450 nm using a microplate reader, and the percentage of cell growth inhibition was then calculated for each tested drug.
(§2) Antiproliferative activity of the novel arylpiperazine derivatives was firstly evaluated against LNCaP cells using the CCK-8 assay. […] Naftopidil and finasteride ([Banday et al., 2014]) were used as control compounds. RWPE-1 cells were used to compare their toxicity. To clarify whether the antiproliferative activity was related to any interference with AR function, the AR antagonist effect was evaluated using the luciferase reporter gene assay. […] The AR luciferase assays were conducted under the co-treatment of 1 nM AR agonist R1881, and the antagonistic activity was measured by inhibiting the R1881-induced luciferase expression.

In data set [2] the test system is LNCaP cells. Put plainly: Antiproliferative activity, CCK-8 assay, LNCaP cells. The class given is cell-based. Conditions: Homo sapiens, LNCaP, 24 h, LNCaP human prostate cancer cell line, mean ± SD of three experiments. As for the experimental part:
as §1, §2

Data set [3] deals with PC-3 cells. Put plainly: Antiproliferative activity, CCK-8 assay, PC-3 cells. It counts as cell-based. The conditions noted are these: PC-3 human prostate cancer cell line, 24 h, mean ± SD of three experiments. The protocol:
as §1, §2

For `c1ccc(CN2CCN(CCc3ccc(COc4ccc5c(c4)CCC5)cc3)CC2)cc1` [Compound 6, 1-(4-((2,3-dihydro-1H-inden-5-yloxy)methyl)phenethyl)-4-benzylpiperazine], the melting point fell in the range of 71.1 to 73.3 °C. For the same molecule, the IC50 in data set [1] was 11.6 ± 0.21 µM. This molecule also registered an IC50 in data set [2] of 23.45 ± 0.12 µM. In addition, in data set [3], half-maximal inhibition (IC50) was put at 11.3 ± 0.15 µM.

Take `c1ccc(N2CCN(CCc3ccc(COc4ccc5c(c4)CCC5)cc3)CC2)nc1` [Compound 7, 1-(4-((2,3-dihydro-1H-inden-5-yloxy)methyl)phenethyl)-4-(pyridin-2-yl)piperazine]: the melting point is 90.1 to 91.8 °C. The same molecule showed a concentration for half-maximal inhibition (IC50) in data set [1] of 7.68 ± 0.15 µM. For the same molecule, in data set [2], the IC50 was found to be 15.29 ± 0.13 µM. Moreover, the IC50 in data set [3] was above 50 µM.

Regarding `Cc1cccc(N2CCN(CCc3ccc(COc4ccc5c(c4)CCC5)cc3)CC2)c1` [Compound 9, 1-(4-((2,3-dihydro-1H-inden-5-yloxy)methyl)phenethyl)-4-m-tolylpiperazine], the melting point was in the range of 61.2 to 62.7 °C. In addition, the IC50 in data set [1] came out at 11 ± 0.16 µM. In data set [2], this molecule showed an IC50 of 42.68 ± 0.14 µM. Also, the IC50 in data set [3] was above 50 µM.

`Cc1ccc(N2CCN(CCc3ccc(COc4ccc5c(c4)CCC5)cc3)CC2)cc1` [Compound 10, 1-(4-((2,3-dihydro-1H-inden-5-yloxy)methyl)phenethyl)-4-p-tolylpiperazine] had a melting point of 105.1 to 106.3 °C. This molecule showed a 50% inhibitory concentration (IC50) in data set [1] of 9.24 ± 0.23 µM. The 50% inhibitory concentration (IC50) in data set [2] worked out at 20.9 ± 0.22 µM. This molecule displayed a half-inhibitory concentration (IC50) in data set [3] of 17.2 ± 0.21 µM.

The molecule `Cc1ccc(C)c(N2CCN(CCc3ccc(COc4ccc5c(c4)CCC5)cc3)CC2)c1` [Compound 11, 1-(4-((2,3-dihydro-1H-inden-5-yloxy)methyl)phenethyl)-4-(2,5-dimethylphenyl)piperazine] came in with a melting point of 70.4 to 71.5 °C. The molecule further gave an IC50 in data set [1] above 50 µM. In addition, the IC50 in data set [2] is above 50 µM. Moreover, half-maximal inhibition in data set [3] (IC50) required 4.31 ± 0.13 µM.

As for `CCOc1ccccc1N1CCN(CCc2ccc(COc3ccc4c(c3)CCC4)cc2)CC1` [Compound 13, 1-(4-((2,3-dihydro-1H-inden-5-yloxy)methyl)phenethyl)-4-(2-ethoxyphenyl)piperazine], the melting point was in the range of 65.2 to 66.1 °C. For the same molecule, the IC50 in data set [1] was above 50 µM. The molecule further gave an IC50 in data set [2] above 50 µM. The IC50 in data set [3] was above 50 µM.

Take `Fc1ccccc1N1CCN(CCc2ccc(COc3ccc4c(c3)CCC4)cc2)CC1` [Compound 16, 1-(4-((2,3-dihydro-1H-inden-5-yloxy)methyl)phenethyl)-4-(2-fluorophenyl)piperazine]: the melting point lay within 64.2 to 65.3 °C. This molecule also showed an IC50 in data set [1] above 50 µM. Besides, in data set [2], the half-inhibitory concentration (IC50) was found to be 18.56 ± 0.17 µM. In addition, the IC50 in data set [3] is above 50 µM.

`Fc1ccc(N2CCN(CCc3ccc(COc4ccc5c(c4)CCC5)cc3)CC2)cc1` [Compound 17, 1-(4-((2,3-dihydro-1H-inden-5-yloxy)methyl)phenethyl)-4-(4-fluorophenyl)piperazine] returned a melting point of 79.8 to 80.5 °C. The same molecule displayed a half-maximal inhibitory concentration (IC50) in data set [1] above 50 µM. Further, inhibition in data set [2] was half-maximal at 17.92 ± 0.13 µM (IC50). In addition, half-maximal inhibition in data set [3] (IC50) required 1.45 ± 0.17 µM.

The molecule `Fc1ccc(N2CCN(CCc3ccc(COc4ccc5c(c4)CCC5)cc3)CC2)c(F)c1` [Compound 18, 1-(4-((2,3-dihydro-1H-inden-5-yloxy)methyl)phenethyl)-4-(2,4-difluorophenyl)piperazine] came in with a melting point of 86.1 to 86.5 °C. In data set [1], this molecule returned an IC50 above 50 µM. The molecule also gave a concentration for half-maximal inhibition (IC50) in data set [2] of 10.7 ± 0.14 µM. This molecule gave an IC50 in data set [3] of 1.92 ± 0.24 µM.

`Clc1cccc(N2CCN(CCc3ccc(COc4ccc5c(c4)CCC5)cc3)CC2)c1` [Compound 20, 1-(4-((2,3-dihydro-1H-inden-5-yloxy)methyl)phenethyl)-4-(3-chlorophenyl)piperazine] displayed a melting point of 83.2 to 84.3 °C. This molecule showed a half-maximal inhibitory concentration (IC50) in data set [1] above 50 µM. For the same molecule, the IC50 in data set [2] was determined as 16.98 ± 0.15 µM. Besides, in data set [3], the IC50 amounted to 1.56 ± 0.14 µM.

Turning to `COc1ccccc1N1CCN(CC(O)COc2cccc3ccccc23)CC1` (stereo not shown) [Naftopidil, reference compound], the figures for the IC50 in data set [1], in data set [2] and in data set [3] were above 50 µM, 22.4 ± 0.61 µM and 42.1 ± 0.79 µM, respectively.
